# Assay results published in patent US10681912B2, “Dispersion solution containing antibacterial ultrafine metal particles and method of producing the same” (TOYO SEIKAN GROUP HOLDINGS, LTD., priority 2013, dated 2020).
# Test: SP values (solubility parameter)
# Format: physicochemical
# Details: δ=(E/V)^1/2
# Source text: The SP value has the same meaning as the solubility parameter, and serves as a rough indication of mixing property between the liquids. If the cohesive energy is denoted by E and the molar volume by V, then the SP value δ is given by δ=(E/V)^1/2.
smiles,measurement,value
CC(=O)CC(C)C [Methylisobutyl ketone],SP Value,8.7
